This note sets out measurements from patent US7597692B2, “Microscission processes and procedures” (Massachusetts Institute of Technology, priority 2000, dated 2009).

The assay concerns Subject B site (forearm microconduit). Briefly: Lidocaine applied on forearm microconduit site, anesthetic effect (Example 3). It counts as in vivo, human. Conditions: 3% lidocaine applied on Subject B microconduit site.

Turning to `CCN(CC)CC(=O)Nc1c(C)cccc1C` [lidocaine], the anesthetic effects entry is listed as “No discernible anesthetic effects were observed”.
